# Tested on: C57BL/6 female mice bearing allogeneic pregnancy sired by Balb/c males
# Experiment: Fetal wastage and in utero Lm invasion after virulent Lm (strain 10403s) prenatal infection, allogeneic pregnancy
# Assay type: in vivo
# Settings: virulent Lm 10^4 CFU, ampicillin in drinking water
smiles,measurement,setting,value
CC1(C)S[C@@H]2[C@H](NC(=O)[C@H](N)c3ccccc3)C(=O)N2[C@H]1C(=O)O [ampicillin],benefits (protection against fetal wastage),treatment delayed until 24 hours post-infection,uniformly dissipated
same,protection against fetal wastage,treatment initiated 12 hours after infection,near complete protection

# From patent publication US20180022810A1, “USE OF CXCR3 INHIBITORS FOR PROTECTING AGAINST FETAL WASTAGE” (Children's Hospital Medical Center, priority 2015, published 2018)
